Source: patent US7138361B2, “Herbicidal heterocycles” (E. I. du Pont de Nemours and Company, priority 2000, dated 2006)

Experiments:
Assay in all cases: Test D greenhouse paddy-water test in rice
Format in all cases: in vivo
Conditions in all cases: 500 g/ha alone, 21 days, 0-100 scale
[1] = tested on: Alisma plantago-aquatica (Ap)
From the text: (§1) Four plastic pots (ca. 16-cm diameter) per rate were partially filled with sterilized Tama silt loam soil comprised of a 35:50:15 ratio of sand, silt and clay and 2.6% organic matter. Separate plantings for each of the four pots were as follows. Seeds from the U.S. of Heteranthera limosa (Hl), Monochoria vaginalis (Mv), Ammania auriculata (Aa), and Sphenoclea zeylanica (Sz) were planted into one 16-cm pot for each rate. Seeds from the U.S. of Cyperus iria (Ci), Leptochloa fascicularis (Li), one stand of 9 or 10 direct-seeded rice seedlings (Oryza saliva cv. ‘Japonica—M202’; Oss), and one stand of 6 transplanted rice seedlings (Oryza sativa cv. ‘Japonica—M202’; Ost) were planted into one 16-cm pot for each rate. Seeds from the U.S. of Cyperus difformis (Cd), Alisma plantago-aquatica (Ap), and Scirpus mucronatus (Sm) were planted into one 16-cm pot for each rate. Seeds from the U.S. of Echinochloa crus-galli (Ecg), Echinochloa oryzicola (Eor), Echinochloa oryzoides (Eoz) and Echinochloa colonum (Ecc) were planted into one 16-cm pot for each rate. Plantings were sequential so that crop and weed species were at the 2.0 to 2.5-leaf stage at time of treatment.
(§2) Potted plants were grown in a greenhouse with day/night temperature settings of 29.5/26.7° C., and supplemental balanced lighting was provided to maintain a 16-hour photoperiod. Test pots were maintained in the greenhouse until test completion.
(§3) Chemical treatments consisting of Compound 1 of Index Table A (Cmpd 1), daimuron (Cmpd D), quinoclamine (Cmpd Q) and combinations thereof were formulated in acetone. At time of treatment, test pots were flooded to 3 cm above the soil surface, treated by application of test compounds directly to the paddy water, and then maintained at that water depth for the duration of the test. Effects of treatments on rice and weeds were visually evaluated by comparison to untreated controls after 21 days. Plant response ratings are reported on a 0 to 100 scale; where 0 is no effect and 100 is complete control. ND means no data.
(§4) Colby's equation was used to calculate the expected additive herbicidal effect of the mixtures of Compound 1 with daimuron (Cmpd D) and quinoclamine (Cmpd Q). Colby's equation (Colby, S. R “Calculating Synergistic and Antagonistic Responses of Herbicide Combinations,” Weeds, 15(1), pp 20–22 (1967)) calculates the expected additive effect of herbicidal mixtures, and for two active ingredients is of the form: Pa+b=Pa+Pb−(PaPb/100) wherein Pa+b is the percentage effect of the mixture expected from additive contribution of the individual components, • Pa is the observed percentage effect of the first active ingredient at the same use rate as in the mixture, and • Pb is the observed percentage effect of the second active ingredient at the same use rate as in the mixture.

Ammania auriculata (Aa) = tested on: Ammania auriculata (Aa)
From the text: as §1, §2, §3, §4

Cyperus difformis (Cd) = tested on: Cyperus difformis (Cd)
From the text: as §1, §2, §3, §4

Cyperus iria (Ci) = tested on: Cyperus iria (Ci)
From the text: as §1, §2, §3, §4

[2] = tested on: Echinochloa colonum (Ecc)
From the text: as §1, §2, §3, §4

[3] = tested on: Echinochloa crus-galli (Ecg)
From the text: as §1, §2, §3, §4

[4] = tested on: Echinochloa oryzicola (Eor)
From the text: as §1, §2, §3, §4

[5] = tested on: Echinochloa oryzoides (Eoz)
From the text: as §1, §2, §3, §4

Heteranthera limosa (Hl) = tested on: Heteranthera limosa (Hl)
From the text: as §1, §2, §3, §4

[6] = tested on: Leptochloa fascicularis (Li)
From the text: as §1, §2, §3, §4

[7] = tested on: Monochoria vaginalis (Mv)
From the text: as §1, §2, §3, §4

Scirpus mucronatus (Sm) = tested on: Scirpus mucronatus (Sm)
From the text: as §1, §2, §3, §4

[8] = tested on: Sphenoclea zeylanica (Sz)
From the text: as §1, §2, §3, §4

[9] = tested on: direct-seeded rice seedlings (Oryza saliva cv. 'Japonica—M202'; Oss)
From the text: as §1, §2, §3, §4

[10] = tested on: transplanted rice seedlings (Oryza sativa cv. 'Japonica—M202'; Ost)
From the text: as §1, §2, §3, §4

For `NC1=C(Cl)C(=O)c2ccccc2C1=O` [quinoclamine, reference compound], the “Obs. (observed effect) Ap” value [1] was 60, the “Obs. (observed effect) Aa” value (Ammania auriculata (Aa)) was 0 and the “Obs. (observed effect) Cd” value (Cyperus difformis (Cd)) was 35. The “Obs. (observed effect) Ci” value (Cyperus iria (Ci)) was 0, the “Obs. (observed effect) Ecc” value [2] was 0 and the “Obs. (observed effect) Ecg” value [3] was 0. For the same compound, the “Obs. (observed effect) Eor” value [4] was 30, the “Obs. (observed effect) Eoz” value [5] was 0 and the “Obs. (observed effect) Hl” value (Heteranthera limosa (Hl)) was 0. For the same compound, the “Obs. (observed effect) Lf” value [6] was 0, the “Obs. (observed effect) Mv” value [7] was 0 and the “Obs. (observed effect) Sm” value (Scirpus mucronatus (Sm)) was 0. For the same compound, the “Obs. (observed effect) Sz” value [8] was 0, the “Obs. (observed effect) Oss” value [9] was 0 and the “Obs. (observed effect) Ost” value [10] was 0.

For `Cc1ccc(NC(=O)NC(C)(C)c2ccccc2)cc1` [daimuron, reference compound], the “Obs. (observed effect) Ap” value [1] was 0, the “Obs. (observed effect) Aa” value (Ammania auriculata (Aa)) was 0 and the “Obs. (observed effect) Cd” value (Cyperus difformis (Cd)) was 60. The “Obs. (observed effect) Ci” value (Cyperus iria (Ci)) was 0, the “Obs. (observed effect) Ecc” value [2] was 0 and the “Obs. (observed effect) Ecg” value [3] was 0. For the same compound, the “Obs. (observed effect) Eor” value [4] was 0, the “Obs. (observed effect) Eoz” value [5] was 0 and the “Obs. (observed effect) Hl” value (Heteranthera limosa (Hl)) was 30. The “Obs. (observed effect) Lf” value [6] was 0, the “Obs. (observed effect) Mv” value [7] was 30 and the “Obs. (observed effect) Sz” value [8] was 20. For the same compound, the “Obs. (observed effect) Oss” value [9] was 0 and the “Obs. (observed effect) Ost” value [10] was 0.
